The values that follow come from patent US5716971A, “Pyridine derivatives, their production and use” (Takeda Chemical Industries, Ltd., priority 1993, dated 1998).

Where two headings read alike, the source gives them in different places.

For experiment [1], the system named is anesthetized dogs. As to the kind of experiment: Action of increasing coronary blood flow in anesthetized dogs (administration into coronary artery). In kind it is in vivo, dog. The note with it: injected into coronary artery, 30 ug/day, anesthetized Beagle dogs. Here is the method:
Action of increasing coronary blood flow in anesthetized dogs (Administration into coronary artery) Method: Beagle dogs (10 to 12 kg body weight) were anesthetized with pentobarbital and subjected to thoractomy under artificial respiration. A by-pass fitted with an electromagnetic flowmeter (Nippon Koden) was prepared between the left coronary artery and left carotid artery,and the volume of coronary blood flow was measured. […]
Maximal change rate against the value measured before the administration (% of basal flow) and the duration period [shown in terms of the time (T1/2) in which the activity is reduced to half] are shown in Table 67. As a result, it is apparent that the compounds of this invention show action of increasing coronary blood flow.

Experiment [2] deals with specimen of rat aorta. As to the kind of experiment: Vasorelaxation activity in a specimen of rat aorta: contraction caused by KCl. The settings on record: read-out: constriction inhibitory ratio. Here is the method:
(§1) Male Wister rats (10 to 13 week old were employed for the experiment. After dehematization, the aorta was excised and a ring specimen (5 mm length) was prepared. The specimen was suspended in a bath filled with oxygenated (95% O2 -5%CO2) Krebs solution (36° C.). The ring specimen was fixed at one end and the other end was connected to a transducer (Nippon Koden) for recording tension to determine the tension. After a stabilization period of one hour, TEA (30-45 mM) and BaCl2 (0.3 mM) were added to the bath to cause vasoconstriction. After the constriction had reached a steady state (after about 15 minutes), a test compound was added to the bath and its relaxation activity was measured.
Vasorelaxation activity in a specimen of rat aorta Effects on contraction caused by potassium chloride (KCl)
The same experiment was conducted as in Experiment 1, excepting the use of KCl ([…]) instead of TEA and BaCl2

Experiment [3] has as its system specimen of rat aorta. As to the kind of experiment: Vasorelaxation activity in a specimen of rat aorta: contraction caused by TEA and BaCl2. The note with it: TEA (30-45 mM) and BaCl2 (0.3 mM) contraction, read-out: constriction inhibitory ratio. As for the experimental part:
Vasorelaxation activity in a specimen of rat aorta Effects on contraction caused by tetraethylammonium chloride (TEA) and barium chloride (BaCl2)
as §1

The test system of experiment [4] is Spontaneously hypertensive rats. As to the kind of experiment: Hypotensive activity in rats (Tail Cuff Method), oral. In kind it is in vivo. The settings on record: Rattus norvegicus, SHR. As for the experimental part: Hypotensive activity in rats (Tail Cuff Method)
Spontaneously hypertensive rats (SHR, male, 20 to 23 week old) were warmed up to 36° C. The blood pressure at the tail aorta was measured by the tail cuff method. The blood pressure was measured three times, i.e. before oral administration of the test compound, two hours after the administration and five hours after the administration. The test compound was orally administered in the state of a suspension in gum arabic.
Maximal, hypotensive effect against the blood pressure before the administration is shown as % pre. in Table 66. As a result, it is apparent that the compounds of this invention show hypotensive activity.

The mark [5] stands for this setting: after 2 hours, read-out: Maximal hypotensive effect against blood pressure before administration (% pre.), after 2 hours.
[6] abbreviates: after 5 hours, read-out: Maximal hypotensive effect against blood pressure before administration (% pre.), after 5 hours.

Turning to `CC(C)(C)O/N=C(/c1cc(F)c(F)cc1O)c1ncccc1O` [Compound 34, (Z)-2-(4,5-difluoro-2-hydroxybenzoyl)-3-hydroxypyridine O-t-butyloxime], in experiment [1], the “duration (T1/2): time in which the activity is reduced to half” value came out at 3.7 min. The inhibition at 1 µM in experiment [2] worked out at 4%; in experiment [3], 54%. The inhibition at 3 µM was 18% in experiment [2] and 59% in experiment [3]. Also, the inhibition in vivo at 10 mg/kg worked out at 27% in experiment [4] (setting [5]) and 10% in experiment [4] (setting [6]).

Regarding `CC(C)(C)O/N=C(/c1cc(Br)c(Cl)cc1O)c1ncccc1O` [Compound 38, (Z)-2-(5-bromo-4-chloro-2-hydroxybenzoyl)-3-hydroxypyridine O-t-butyloxime], the “duration (T1/2): time in which the activity is reduced to half” value in experiment [1] came to 4.7 min. The values for the inhibition at 1 µM in experiment [2] and in experiment [3] were 0% and 92%, respectively. Moreover, the inhibition at 3 µM in experiment [2] amounted to 1%; in experiment [3], 100%. For the same molecule, the values for the inhibition in vivo at 10 mg/kg in experiment [4] (setting [5]) and in experiment [4] (setting [6]) were 29% and 13%, respectively.

With `CC(C)(C)C/N=C(/c1cc(Br)ccc1O)c1cccc[n+]1[O-]` [Compound 105, (Z)-2-[(5-bromo-2-hydroxy)-α-neopentyliminobenzyl]pyridine N-oxide], in experiment [1], the “duration (T1/2): time in which the activity is reduced to half” value is listed as 2.9 min. Further, the inhibition at 1 µM in experiment [2] came to 4%; in experiment [3], 46%. In addition, the inhibition at 3 µM amounted to 28% in experiment [2] and 87% in experiment [3]. The inhibition in vivo at 30 mg/kg in experiment [4] (setting [5]) was determined as 59%; in experiment [4] (setting [6]), 44%.

As for `CC(C)(C)O/N=C(/c1cc(Cl)c(Cl)cc1O)c1ncccc1O` [Compound 32, (Z)-2-(4,5-dichloro-2-hydroxybenzoyl)-3-hydroxypyridine O-t-butyloxime], the “duration (T1/2): time in which the activity is reduced to half” value in experiment [1] came to 3.0 min. Besides, the inhibition at 1 µM was -2% in experiment [2] and 87% in experiment [3]. For the same molecule, the inhibition at 3 µM in experiment [2] worked out at 11%; in experiment [3], 100%. Further, the inhibition in vivo at 10 mg/kg in experiment [4] (setting [5]) came to 19%; in experiment [4] (setting [6]), 18%.

Regarding `CC(C)(C)O/N=C(/c1cc(Br)ccc1O)c1c(O)ccc[n+]1[O-]` [Compound 63, (Z)-2-(5-bromo-2-hydroxybenzoyl)-3-hydroxypyridine N-oxide O-t-butyloxime], in experiment [1], the “duration (T1/2): time in which the activity is reduced to half” value turned out to be 2.4 min. In experiment [2], the inhibition at 1 µM amounted to 0%, the inhibition at 3 µM was 0% and the inhibition at 10 µM amounted to 0%. In experiment [3], the inhibition at 1 µM is 13%, the inhibition at 3 µM is 61% and the inhibition at 10 µM worked out at 100%. For the same molecule, in experiment [4] (setting [5]), the inhibition in vivo at 10 mg/kg was 42%. Also, the inhibition in vivo at 10 mg/kg in experiment [4] (setting [6]) came to 54%.

Turning to `CC(C)(C)O/N=C(/c1cc(F)c(Cl)cc1O)c1ncccc1O` [Compound 40, (Z)-2-(4-chloro-5-fluoro-2-hydroxybenzoyl)-3-hydroxypyridine O-t-butyloxime], in experiment [1], the “duration (T1/2): time in which the activity is reduced to half” value amounted to 2.8 min. In addition, the figures for the inhibition at 1 µM in experiment [2] and in experiment [3] were 0% and 85%, respectively. The figures for the inhibition at 3 µM in experiment [2] and in experiment [3] were 0% and 72%, respectively. In addition, the values for the inhibition in vivo at 10 mg/kg in experiment [4] (setting [5]) and in experiment [4] (setting [6]) were 30% and 11%, respectively.

Regarding `CC(C)(C)O/N=C(/c1cc(Br)c(Cl)cc1O)c1cccc[n+]1[O-]` [Compound 101, (Z)-2-(5-bromo-4-chloro-2-hydroxybenzoyl)pyridine N-oxide O-t-butyloxime], in experiment [1], the “duration (T1/2): time in which the activity is reduced to half” value is 7.9 min. Further, the inhibition at 1 µM in experiment [2] was 3%; in experiment [3], 71%. Further, the figures for the inhibition at 3 µM in experiment [2] and in experiment [3] were 25% and 65%, respectively. Besides, the inhibition in vivo at 3 mg/kg in experiment [4] (setting [5]) came to 10%; in experiment [4] (setting [6]), 11%.

On to `CC(C)(C)O/N=C(/c1cc(F)c(Cl)cc1O)c1c(O)ccc[n+]1[O-]` [Compound 56, (Z)-2-(4-chloro-5-fluoro-2-hydroxybenzoyl)-3-hydroxypyridine N-oxide O-t-butyloxime], for which the “duration (T1/2): time in which the activity is reduced to half” value in experiment [1] came out at 27.3 min. Further, the inhibition at 1 µM in experiment [3] amounted to 100%. Moreover, the results for the inhibition in vivo at 10 mg/kg in experiment [4] (setting [5]) and in experiment [4] (setting [6]) were 51% and 42%, respectively.

As for `CC(C)(C)O/N=C(/c1cc(F)c(F)cc1O)c1c(O)ccc[n+]1[O-]` [Compound 59, (Z)-2-(4,5-difluoro-2-hydroxybenzoyl)-3-hydroxypyridine N-oxide O-t-butyloxime], the “duration (T1/2): time in which the activity is reduced to half” value in experiment [1] worked out at 15.1 min. In addition, in experiment [3], the inhibition at 1 µM stood at 6% and the inhibition at 3 µM was 100%. Further, in experiment [4] (setting [5]), the inhibition in vivo at 1 mg/kg came to 22% and the inhibition in vivo at 10 mg/kg was 45%. Also, in experiment [4] (setting [6]), the inhibition in vivo at 1 mg/kg came out at 10% and the inhibition in vivo at 10 mg/kg amounted to 54%.

With `CC(C)(C)O/N=C(/c1cc(Cl)c(F)cc1O)c1ncccc1O` [Compound 36, (Z)-2-(5-chloro-4-fluoro-2-hydroxybenzoyl)-3-hydroxypyridine O-t-butyloxime], the “duration (T1/2): time in which the activity is reduced to half” value in experiment [1] is listed as 4.8 min. The inhibition at 1 µM in experiment [2] was 0%; in experiment [3] it was 81%. The inhibition at 3 µM in experiment [2] amounted to 4%; in experiment [3], 80%. Moreover, the inhibition in vivo at 10 mg/kg in experiment [4] (setting [5]) is 42%; in experiment [4] (setting [6]), 30%.

As to `Cc1cc(O)c(/C(=N/OC(C)(C)C)c2c(O)ccc[n+]2[O-])cc1Br` [Compound 67, (Z)-2-(5-bromo-2-hydroxy-4-methylbenzoyl)-3-hydroxypyridine N-oxide O-t-butyloxime], the “duration (T1/2): time in which the activity is reduced to half” value in experiment [1] was determined as 8.9 min. Moreover, the values for the inhibition at 1 µM in experiment [2] and in experiment [3] were 0% and 32%, respectively. Further, the inhibition at 3 µM in experiment [2] amounted to 0%; in experiment [3], 89%. Also, the inhibition at 10 µM in experiment [2] came to 0%; in experiment [3], 100%. Further, the inhibition in vivo at 10 mg/kg in experiment [4] (setting [5]) was 28%; in experiment [4] (setting [6]), 35%.

Consider `CC(C)(C)O/N=C(/c1cc(Cl)c(F)cc1O)c1c(O)ccc[n+]1[O-]` [Compound 58, (Z)-2-(5-chloro-4-fluoro-2-hydroxybenzoyl)-3-hydroxypyridine N-oxide O-t-butyloxime], for which, in experiment [1], the “duration (T1/2): time in which the activity is reduced to half” value is 47.7 min. Further, in experiment [2], the inhibition at 1 µM stood at 0% and the inhibition at 3 µM came to 0%. Also, in experiment [3], the inhibition at 1 µM is 84% and the inhibition at 3 µM came out at 94%. Besides, in experiment [4] (setting [5]), the inhibition in vivo at 1 mg/kg is 35% and the inhibition in vivo at 10 mg/kg is 55%. For the same molecule, in experiment [4] (setting [6]), the inhibition in vivo at 1 mg/kg was 19% and the inhibition in vivo at 10 mg/kg was determined as 45%.
